Measured values from patent US5998437A, “Benzimidazole derivatives” (Otsuka Pharmaceutical Co., Ltd., priority 1995, dated 1999).
Like-named read-outs stand apart in the source and are kept apart here.

Experiments:
cGMP-PDE = target: T1, cGMP-PDE (Homo sapiens, UniProt O76074); test: Activity for inhibiting cGMP PDE (PDE partially purified from human platelets, FI fraction); format: biochemical; conditions: 0.4 μM of [3H]-cGMP
T1 construct: Separation and partial purification of PDE (phosphodiesterase) from human platelets; from tissue; host or cells: human platelets (supernatant, DEAE-cellulose FI fraction)
Experimental: (1) Measurement of the Activity for Inhibiting cGMP PDE
Separation and partial purification of PDE (phosphodiesterase) from human platelets, and measurement of the activity for inhibiting cGMP PDE were conducted by the method of Hidaka, et al. [Biochimica et Biophysica Acta, Vol. 429, (1976), pp. 485-497]. The platelets obtained from human healthy adult were washed, and suspended in TRIS-buffer solution, then said suspension was treated by centrifugal separation, the supernatant was subjected to a DEAE-cellulose treatment and fractionated into FI to FIII fractions by a method of concentration gradient of sodium acetate. Thus obtained FI fraction was used as the sample of cGMP-PDE. The activity for inhibiting cGMP-PDE was measured by using 0.4 μM of [^3 H]-cGMP.

rat A10 cells = test: Activity for inhibiting proliferation of rat A10 cells ([3H]-thymidine uptake); format: cell-based; conditions: read-out: Activity for inhibiting proliferation of rat A10 cells [IC50 (μM)]
Experimental: (2) Measurement of the Activity for Inhibiting Proliferation of Rat A10 Cells
(§1) Test was conducted by the modified method of N. Morisaki [Atherosclerosis, Vol. 71, (1988), pp. 165-171]. The rat A10 cells (purchased from Dainippon Pharmaceutical Co., Ltd.) were inoculated on a 24 wells immunoplate at a density of 10,000 cells/well, and were cultured in 10% FBS (fetal bovine serum) for 2 days, and in order to introduce the cells into the resting stage, the cells were further cultured in a serum-free medium for 2 days. After that, 1% FBS was added thereto for stimulating the proliferation, of the cells and at the same time, a test compound and 0.5 μCi/well of [^3 H]-thymidine were added. As to the index of synthesized amount of DNA, the quantity of [^3 H]-thymidine being uptaken by the cells was measured at the time of 24 hours after the final cultivation was started.

human fibroblast = test: Activity for inhibiting proliferation of the human fibroblast ([3H]-thymidine uptake); format: cell-based
Experimental: as §1
(3) Measurement of the Activity for Inhibiting Proliferation of the Human Fibroblast
Similar to the activity for inhibiting proliferation of rat A10 cells as mentioned above, the activity for inhibiting proliferation of the human fibroblast (purchased from Dainippon Pharmaceutical Co., Ltd.) was determined by measuring the uptake amount of [^3 H]-thymidine.

[1] = A10, 1% FBS stimulation, 24 hours

Row | Compound | IC50 (cGMP-PDE) [µM] | IC50 (rat A10 cells; A10, 24 h) [µM] | IC50 (rat A10 cells; [1]) [µM] | IC50 (human fibroblast) [nM]
1 | O=C(Nc1ccc2c(c1)CCN2CCCN1CCC(O)(c2ccccc2)CC1)c1nc2ccc(Cl)cc2n1Cc1ccccc1 [Example 20] | 0.01 | 0.85 | – | –
2 | CC(C)c1nccn1CCCn1ccc2cc(CNC(=O)c3nc4ccc(Cl)cc4n3Cc3ccccc3)ccc21 [Example 18] | – | – | 0.48 | –
3 | CN(CCCn1ccc2cc(NC(=O)c3nc4ccc(Cl)cc4n3Cc3ccccc3)ccc21)C1CCCCC1 [Example 4] | 0.06 | – | 0.3 | –
4 | O=C(Nc1ccc2[nH]ccc2c1)c1nc2ccc(Cl)cc2n1Cc1ccccc1 [Example 2] | 0.02 | 0.4 | – | –
5 | O=C(Nc1ccc2c(ccn2CCCn2cncn2)c1)c1nc2ccc(Cl)cc2n1Cc1ccccc1 [Example 7] | – | – | 0.49 | –
6 | O=C(Nc1ccc2[nH]ncc2c1)c1nc2ccc(Cl)cc2n1Cc1ccccc1 [Example 21] | 0.02 | – | – | –
7 | O=C(Nc1ccc2[nH]c(=O)ccc2c1)c1nc2ccc(Cl)cc2n1Cc1ccccc1 [Example 46, 1-benzyl-6-chloro-2-[2(1H)-quinolinon-6-ylamino-caronyl]benzimidazole] | < 0.01 | – | – | –
8 | CC(C)n1nnnc1Cn1ccc2cc(NC(=O)c3nc4ccc(Cl)cc4n3Cc3ccccc3)ccc21 [Example 16] | – | – | – | 49
9 | COC(=O)n1ccc2cc(NC(=O)c3nc4ccc(Cl)cc4n3Cc3ccccc3)ccc21 [Example 9] | 0.08 | – | – | –
10 | O=C(Nc1ccc2c(ccn2CCCn2cccn2)c1)c1nc2ccc(Cl)cc2n1Cc1ccccc1 [Example 6] | – | – | 0.66 | –
11 | CC(C)n1nnnc1CN1C(=O)CCc2cc(NC(=O)c3nc4ccc(Cl)cc4n3Cc3ccccc3)ccc21 [Example 45] | – | – | – | 41
12 | Cc1noc(C)c1C(=O)NCCCn1ccc2cc(NC(=O)c3nc4ccc(Cl)cc4n3Cc3ccccc3)ccc21 [Example 12] | – | – | 0.69 | –
13 | O=C(NCCCn1ccc2cc(NC(=O)c3nc4ccc(Cl)cc4n3Cc3ccccc3)ccc21)c1cccnc1 [Example 11, 1-benzyl-6-chloro-2-{1-[3-(pyridin-3-ylcarbonylamino)propyl]indol-5-ylaminocarbonyl}benzimidazole] | 0.01 | – | 0.97 | –

Now from value to compound, other results behind:

Row | IC50 (cGMP-PDE) [µM] | Compound | IC50 (rat A10 cells; A10, 24 h) [µM] | IC50 (rat A10 cells; [1]) [µM] | IC50 (human fibroblast) [nM]
14 | 0.014 | CN(C)CCN(C)CCCN1C(=O)CCc2cc(NC(=O)c3nc4ccc(Cl)cc4n3Cc3ccccc3)ccc21 [Example 44] | – | – | –
15 | < 0.01 | O=C(NCCCN1CCc2cc(NC(=O)c3nc4ccc(Cl)cc4n3Cc3ccccc3)ccc21)c1ccc[nH]1 [Example 28] | – | – | –
16 | 0.1 | C=CCN1C(=O)CCc2cc(NC(=O)c3nc4ccc(Cl)cc4n3Cc3ccccc3)ccc21 [Example 42] | – | 0.95 | –
17 | < 0.01 | Cc1noc(C)c1C(=O)NCCCN1CCc2cc(NC(=O)c3nc4ccc(Cl)cc4n3Cc3ccccc3)ccc21 [Example 33] | – | 1.27 | 42
18 | 0.02 | O=C1CCc2cc(NC(=O)c3nc4ccc(Cl)cc4n3Cc3ccccc3)ccc2N1 [Example 41, 1-benzyl-6-chloro-2-(3,4-dihydro-2(1H)-quinolinon-6-ylaminocarbonyl)benzimidazole] | – | – | –
19 | 0.12 | N#Cc1cccc(OCCCn2ccc3cc(NC(=O)c4nc5ccc(Cl)cc5n4Cc4ccccc4)ccc32)c1 [Example 25] | – | – | –
20 | < 0.01 | O=C(NCCCN1CCOc2cc(NC(=O)c3nc4ccc(Cl)cc4n3Cc3ccccc3)ccc21)c1ccccn1 [Example 47] | – | 0.67 | 21
